Results published in US8450357B2, “Compositions comprising an aryl pyrazole and/or a formamidine, methods and uses thereof” (Merial Limited, priority 2008, dated 2013).
Where two headings read alike, the source gives them in different places.

Columns and labels:
Type in all cases: in vivo
[1] = system: adult brown dog ticks (Rhipicephalus sanguineus); test: Tick DMSO contact assay, Compound 1 with amitraz, Example 15; settings: for mortality at 6.25 ppm / mortality at 12.5 ppm / mortality at 25 ppm: Rhipicephalus sanguineus; for Synergistic Ratio (EC50): EC50 alone divided by EC50 with Amitraz (12.5 ppm); for Synergistic Ratio (EC90): EC90 alone divided by EC90 with Amitraz (12.5 ppm)
Procedure: Dosages were serially diluted using this same formulation.
Scintillation vials were treated with commercial and experimental compounds using the same procedure described in Example 12 above. The treated vials were used to determine the contact toxicity of compounds against adult brown dog ticks (Rhipicephalus sanguineus). The ticks were supplied by Ecto Services Inc. Henderson, N.C.
Unfed adult ticks were released into a metal pan and 10 living ticks were aspirated into each vial. […] Two replicates were tested for each treatment and the results were averaged. Ticks were stimulated by gently exhaling in the vials. Within the same time period, the addition of amitraz to an equal dosage of compound 1 increased mean mortality.

ticks = test: Efficacy of combination of fipronil with amitraz against ticks on dogs; settings: 10 mg/kg BW of actives, topical
Procedure: A fipronil formulation (commercial product) was prepared and stored separately from amitraz. Amitraz was formulated with the same carrier. Both parts, fipronil and amitraz in solvent(s) were stored separately and applied simultaneously. Amounts applied were calculated to keep dose at 10% (w/v) each in final formulation and 10 mg/kg BW of actives in amount applied.
In brief, treatment was applied by parting the hair on the midline of the neck, between the base of the skull and the shoulder blades, and applying the formulation directly onto the skin.

[2] = system: Ctenocephalides felis fleas; test: Study C: flea efficacy of Compound 1 and fipronil alone and with amitraz in dogs
Procedure: The effectiveness of Compound 1 alone, fipronil alone, Compound 1 in combination with amitraz, or fipronil in combination with amitraz, when administered once as topical solutions to dogs against induced infestations of Rhipicephalus sanguineus and Ctenocephalides felis were determined in a third clinical study. Thirty-six beagles (18 males and 18 females) were selected for the study. Six replicates of 6 animals each were formed. Treatment Group 1 dogs were treated with a placebo. Treatment Groups 2, 3, 4, 5 and 6 received their respective treatments as a topical spot-on application once on Day 0. Each formulation included diethyleneglycol monoethyl ether (transcutol) as carrier. The Treatment Groups were: Treatment Group 2: fipronil at 0.1 mL/kg body weight (10 mg/kg); Treatment Group 3: Compound 1 at 0.1 mL/kg (10 mg/kg) body weight; Treatment Group 4: Compound 1 at 0.2 mL/kg (20 mg/kg) body weight; Treatment Group 5: Compound 1 at 0.1 mL/kg (10 mg/kg) body weight plus amitraz at 0.04 mL/kg (8 mg/kg) body weight; Treatment Group 6: fipronil at 0.1 mL/kg (10 mg/kg) body weight plus amitraz at 0.04 mL/kg (8 mg/kg) body weight. Treatment was applied by parting the hair and applying the formulation(s) directly onto the skin on one spot at the midline of the neck, except for Groups 4, 5 and 6 which were applied in approximately equal volumes on two spots, one spot between the base of the skull and the shoulder blades and the other at the front of the shoulder blades.
All dogs were infested with approximately 50 Rhipicephalus sanguineus ticks on Days −1, 7, 14, 21, 28, 35, 42, 49 and 56. Dogs were also infested with approximately 100 Ctenocephalides felis fleas on Days −1, 8, 15, 22, 29, 36, 43, 50 and 57. Ectoparasites were removed and counted on Day 2, approximately 48 hours after treatment and on Days 9, 16, 23, 30, 37, 44, 51 and 58 approximately 24 hours after flea infestation and 48 hours after tick infestation. Tables 8 and 9 below show the % efficacy of formulations comprising fipronil at 0.1 ml/kg of body weight, Compound 1 at […], and fipronil and Compound 1 both at […] in combination with amitraz at 0.04 ml/kg of body weight compared to control group without active compounds. The percent reduction in flea counts of the treated groups with respect to the Control group over the study is shown in FIG. 14.

[3] = 6 h, read-out: 6 hour % Mortality Rep 1
[4] = 6 h, read-out: 6 hour % Mortality Rep 2
[5] = 6 h, read-out: 6 hour Avg. % Mortality
[6] = 24 h, read-out: 24 hour % Mortality Rep 1
[7] = 24 h, read-out: 24 hour % Mortality Rep 2
[8] = 24 h, read-out: 24 hour Avg. % Mortality
[9] = 48 h, read-out: 48 hour % Mortality Rep 1
[10] = 48 h, read-out: 48 hour % Mortality Rep 2
[11] = 48 h, read-out: 48 hour Avg. % Mortality

## Cc1ccc(/N=C/N(C)/C=N/c2ccc(C)cc2C)c(C)c1 [Amitraz, amitraz]
[1]; [3]
  mortality at 6.25 ppm: 0%
  mortality at 12.5 ppm: 0%
  mortality at 25 ppm: 0%
[1]; [4]
  mortality at 6.25 ppm: 0%
  mortality at 12.5 ppm: 0%
  mortality at 25 ppm: 0%
[1]; [5]
  mortality at 6.25 ppm: 0%
  mortality at 12.5 ppm: 0%
  mortality at 25 ppm: 0%
[1]; [6]
  mortality at 6.25 ppm: 0%
  mortality at 12.5 ppm: 0%
  mortality at 25 ppm: 0%
[1]; [7]
  mortality at 6.25 ppm: 0%
  mortality at 12.5 ppm: 0%
  mortality at 25 ppm: 0%
[1]; [8]
  mortality at 6.25 ppm: 0%
  mortality at 12.5 ppm: 0%
  mortality at 25 ppm: 0%
[1]; [9]
  mortality at 6.25 ppm: 0%
  mortality at 12.5 ppm: 0%
  mortality at 25 ppm: 10%
[1]; [10]
  mortality at 6.25 ppm: 0%
  mortality at 12.5 ppm: 0%
  mortality at 25 ppm: 10%
[1]; [11]
  mortality at 6.25 ppm: 0%
  mortality at 12.5 ppm: 0%
  mortality at 25 ppm: 10%
ticks; 2 days after treatment
  Efficacy against ticks: 95.1%
ticks; 16 days after treatment
  Efficacy against ticks: 96.9%
ticks; 23 days after treatment
  Efficacy against ticks: 95.0%
ticks; 30 days after treatment
  Efficacy against ticks: 64.9%
ticks; 37 days after treatment
  Efficacy against ticks: 56.2%
ticks; 44 days after treatment
  Efficacy against ticks: 28.3%

## Cc1c([S+]([O-])C(F)(Cl)Cl)c(C#N)nn1-c1c(F)cc(C(F)(F)F)cc1Cl (stereo not drawn) [Compound 1, 3-cyano-1-(2-chloro-6-fluoro-4-trifluoromethylphenyl)-4-dichlorofluoromethylsulfinyl-5-methyl-1H-pyrazole]
[1]; 6 hour Eval
  Synergistic Ratio (EC50): 11
  Synergistic Ratio (EC90): >5.72
[1]; 24 hour Eval
  Synergistic Ratio (EC50): 135.3
  Synergistic Ratio (EC90): 111.4
[1]; 48 hour Eval
  Synergistic Ratio (EC50): 133.1
  Synergistic Ratio (EC90): 50.3
[2]; Day 2, 10 mg/kg
  % Efficacy against fleas: 100%
[2]; Day 2, 20 mg/kg
  % Efficacy against fleas: 100%
[2]; Day 9, 10 mg/kg
  % Efficacy against fleas: 100%
[2]; Day 9, 20 mg/kg
  % Efficacy against fleas: 100%
[2]; Day 16, 10 mg/kg
  % Efficacy against fleas: 100%
[2]; Day 16, 20 mg/kg
  % Efficacy against fleas: 100%
[2]; Day 23, 10 mg/kg
  % Efficacy against fleas: 100%
[2]; Day 23, 20 mg/kg
  % Efficacy against fleas: 100%
[2]; Day 30, 10 mg/kg
  % Efficacy against fleas: 99.8%
[2]; Day 30, 20 mg/kg
  % Efficacy against fleas: 100%
[2]; Day 37, 10 mg/kg
  % Efficacy against fleas: 99.4%
[2]; Day 37, 20 mg/kg
  % Efficacy against fleas: 100%
[2]; Day 44, 10 mg/kg
  % Efficacy against fleas: 98.6%
[2]; Day 44, 20 mg/kg
  % Efficacy against fleas: 100%
[2]; Day 51, 10 mg/kg
  % Efficacy against fleas: 98.5%
[2]; Day 51, 20 mg/kg
  % Efficacy against fleas: 99.8%
[2]; Day 58, 10 mg/kg
  % Efficacy against fleas: 94.6%
[2]; Day 58, 20 mg/kg
  % Efficacy against fleas: 100%

## N#Cc1nn(-c2c(Cl)cc(C(F)(F)F)cc2Cl)c(N)c1[S+]([O-])C(F)(F)F (stereo not drawn) [fipronil, 5-amino-3-cyano-1-(2,6-dichloro-4-trifluoromethylphenyl)-4-trifluoromethylsulfinylpyrazole]
ticks; 2 days after treatment
  Efficacy against ticks: 90.9%
ticks; 16 days after treatment
  Efficacy against ticks: 100%
ticks; 23 days after treatment
  Efficacy against ticks: 99.3%
ticks; 30 days after treatment
  Efficacy against ticks: 53.9%
ticks; 37 days after treatment
  Efficacy against ticks: 43.9%
ticks; 44 days after treatment
  Efficacy against ticks: 37.9%
[2]; Day 2, 10 mg/kg
  % Efficacy against fleas: 100%
[2]; Day 9, 10 mg/kg
  % Efficacy against fleas: 100%
[2]; Day 16, 10 mg/kg
  % Efficacy against fleas: 100%
[2]; Day 23, 10 mg/kg
  % Efficacy against fleas: 100%
[2]; Day 30, 10 mg/kg
  % Efficacy against fleas: 100%
[2]; Day 37, 10 mg/kg
  % Efficacy against fleas: 100%
[2]; Day 44, 10 mg/kg
  % Efficacy against fleas: 99.8%
[2]; Day 51, 10 mg/kg
  % Efficacy against fleas: 100%
[2]; Day 58, 10 mg/kg
  % Efficacy against fleas: 99.1%
